# Read-outs that look alike come from different tables or passages of the source.
# Legend:
# [1] = molecular target: TfIMPDH (Tritrichomonas foetus, UniProt P50097); test: biochemical; assay type: biochemical
# [2] = molecular target: CpIMPDH (Cryptosporidium parvum, UniProt Q8T6T2); test: biochemical; assay type: biochemical
# [3] = molecular target: T1, CjIMPDH (Campylobacter jejuni, UniProt Q0P9J4); test: biochemical; assay type: biochemical
# [4] = molecular target: T2, BaIMPDH (Bacillus anthracis, UniProt A0A6L8P2U9); test: biochemical; assay type: biochemical
# [5] = molecular target: human IMPDH2 (Homo sapiens, UniProt P12268); test: IMPDH steady-state kinetics and inhibition; assay type: biochemical
# [6] = molecular target: partially purified rat IMPDH; conditions: mixed inhibition; cited from earlier work
# [7] = molecular target: T2, BaIMPDH; assay type: biochemical
# [8] = molecular target: T2, BaIMPDH; assay type: binding; conditions: read-out: calculated value of Ki
# [9] = molecular target: T2, BaIMPDH; assay type: biochemical; remark: listed apart in the source
# [10] = molecular target: T1, CjIMPDH; test: Product determination and stoichiometry of inhibition; assay type: biochemical
# [11] = molecular target: CjIMPDHΔS (IMPDH from C. jejuni, CBS domain V92-T195 deleted and replaced with G) (Campylobacter jejuni) (UniProt Q0P9J4); test: crystal structure
# [12] = read-out: Km, NAD, varying NAD+, saturating IMP, 25 °C, pH 8
# [13] = uncompetitive substrate inhibition by NAD+
# [14] = read-out: Kis, OxMP, versus IMP, competitive, NAD+ 500 μM
# Sequence of CpIMPDH (Q8T6T2 whole entry): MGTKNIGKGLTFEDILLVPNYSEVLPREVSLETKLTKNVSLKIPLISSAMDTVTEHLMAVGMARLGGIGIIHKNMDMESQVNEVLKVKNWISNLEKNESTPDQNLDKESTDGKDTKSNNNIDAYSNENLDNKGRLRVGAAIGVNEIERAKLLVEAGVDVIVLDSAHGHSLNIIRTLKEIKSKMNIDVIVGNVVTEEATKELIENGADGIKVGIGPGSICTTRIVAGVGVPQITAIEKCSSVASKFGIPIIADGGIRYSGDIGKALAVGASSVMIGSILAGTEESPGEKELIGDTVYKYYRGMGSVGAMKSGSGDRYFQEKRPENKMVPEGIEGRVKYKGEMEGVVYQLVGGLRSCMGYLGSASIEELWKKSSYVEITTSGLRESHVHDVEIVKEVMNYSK
# Sequence of TfIMPDH (P50097 whole entry): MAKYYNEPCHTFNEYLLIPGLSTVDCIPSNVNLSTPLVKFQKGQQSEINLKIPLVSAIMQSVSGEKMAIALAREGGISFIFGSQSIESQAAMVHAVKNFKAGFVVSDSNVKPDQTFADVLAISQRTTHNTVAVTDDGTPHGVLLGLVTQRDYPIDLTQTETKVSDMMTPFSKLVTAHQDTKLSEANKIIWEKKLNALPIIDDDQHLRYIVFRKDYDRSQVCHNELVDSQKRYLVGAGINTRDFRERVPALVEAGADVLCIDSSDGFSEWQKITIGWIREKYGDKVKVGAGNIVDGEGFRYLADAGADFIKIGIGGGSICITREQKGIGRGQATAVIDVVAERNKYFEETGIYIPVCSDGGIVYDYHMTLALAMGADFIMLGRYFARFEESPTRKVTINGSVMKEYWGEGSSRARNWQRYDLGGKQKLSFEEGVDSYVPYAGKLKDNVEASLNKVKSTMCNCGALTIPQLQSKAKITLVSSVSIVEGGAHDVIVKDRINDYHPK
# T2 sequence (A0A6L8P2U9 1-487): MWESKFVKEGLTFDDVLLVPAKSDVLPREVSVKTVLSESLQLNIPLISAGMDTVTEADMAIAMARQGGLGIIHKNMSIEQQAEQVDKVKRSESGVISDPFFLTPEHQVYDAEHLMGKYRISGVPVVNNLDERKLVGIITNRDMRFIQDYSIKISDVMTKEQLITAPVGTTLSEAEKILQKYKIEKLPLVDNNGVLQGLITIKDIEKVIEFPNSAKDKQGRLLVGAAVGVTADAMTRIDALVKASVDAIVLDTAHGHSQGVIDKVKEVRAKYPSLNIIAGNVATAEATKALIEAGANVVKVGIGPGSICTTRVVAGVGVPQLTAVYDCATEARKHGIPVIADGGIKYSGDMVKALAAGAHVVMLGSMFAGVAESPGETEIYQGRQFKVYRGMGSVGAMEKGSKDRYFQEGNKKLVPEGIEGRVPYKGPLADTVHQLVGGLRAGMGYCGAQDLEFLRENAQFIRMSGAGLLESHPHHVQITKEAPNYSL
molecule,measurement,setting,value
"Nc1nc2c(ncn2[C@@H]2O[C@H](COP(=O)(O)O)[C@@H](O)[C@H]2O)c(=O)[nH]1 [GMP, guanosine 5’-monophosphate, reference compound]",Ki,[1],24000 ± 2000 nM
same,Ki,[2],21000 ± 1000 nM
same,Ki,[3],8000 ± 900 nM
same,Ki,[4],115000 ± 7000 nM
NC(=O)c1ccc[n+]([C@@H]2O[C@H](COP(=O)([O-])OP(=O)(O)OC[C@H]3O[C@@H](n4cnc5c(N)ncnc54)[C@H](O)[C@@H]3O)[C@@H](O)[C@H]2O)c1 [NAD],Km,[5]; [12],7 ± 1.7 µM
same,"Kii, NAD",[5]; [13],0.49 ± 0.12 mM
same,Km,[1]; [12],80 ± 3 µM
same,"Kii, NAD",[1]; [13],5.4 ± 0.3 mM
same,Km,[2]; [12],45 ± 3 µM
same,"Kii, NAD",[2]; [13],6.5 ± 0.5 mM
same,Km,[3]; [12],66 ± 5 µM
same,"Kii, NAD",[3]; [13],4.1 ± 0.3 mM
same,"Kii, NAD",[4],8.1 ± 0.5 mM
same,Km,"[4]; read-out: Km, NAD, pH 8",700 ± 40 µM
"Nc1nc2c(ncn2[C@@H]2O[C@H](COP(=O)(O)O)[C@@H](O)[C@H]2O)c(=O)o1 [OxMP, oxanosine monophosphate]","Kis, GMP /Kis, OxMP",[5]; ratio of Kis values,280
same,Ki,[5]; [14],130 ± 20 nM
same,Ki,[6],1000 to 5000 nM
same,hydrolysis of OxMP to UrMP by the enzyme,[7],no free UrMP was detected
same,stoichiometry of inhibition,[7],1 OxMP/active site
same,"Kis, GMP /Kis, OxMP",[1]; ratio of Kis values,140
same,Ki,[1]; [14],170 ± 20 nM
same,Ki,[8],330 nM
same,dissociation rate constant koff,[9],0.0019 s⁻¹
same,"Kis, GMP /Kis, OxMP",[2]; ratio of Kis values,240
same,Ki,[2]; [14],90 ± 10 nM
same,"Kis, GMP /Kis, OxMP",[3]; ratio of Kis values,160
same,Ki,[3]; [14],51 ± 6 nM
same,"Kis, GMP /Kis, OxMP",[4],340
same,Ki,"[4]; read-out: Kis, OxMP",340 ± 50 nM
same,hydrolysis of OxMP to UrMP by the enzyme,"[10]; enzyme and OxMP in a 1:1 ratio for 4 h, LC-MS",no free UrMP was detected
same,stoichiometry of inhibition,"[10]; incubated 5 min, initial rates",1 OxMP/active site
"CjIMPDHΔS (IMPDH from C. jejuni, CBS domain V92-T195 deleted and replaced with G) (from UniProt Q0P9J4) (enzyme)",stoichiometry N,[11],4
